In US20130225406A1 (priority 2010, published 2013):

Test system: Trioza erytreae
Type: in vivo

CC1(S(=O)(=O)[O-])CC(=O)c2ccccc2C1=O.[Na+] (centres unmarked) [MSB, menadione sodium bisulphite]
trees that showed leaves with the typical symptoms of the Trioza erytreae attack (Plot A 2000 trees, Plot B 300 trees, Plot C 100 trees, end of the summer of 2010): None
control of the Trioza erytreae attacks (citrus trees, foliar treatment once a month with 80 ppm of MSB in aqueous solution from February 2010, assessed at the end of the summer of 2010): 100%
